One may read the IC50 as the concentration at which inhibition is half-maximal.

This passage reports IC50 results from patent US11964953B2, “Substituted aminothiazoles as DGKzeta inhibitors for immune activation” (Bayer Aktiengesellschaft, priority 2020, dated 2024).

Chain of human DGKζ (Q13574 other isoform, or with tags, fused parts or gaps): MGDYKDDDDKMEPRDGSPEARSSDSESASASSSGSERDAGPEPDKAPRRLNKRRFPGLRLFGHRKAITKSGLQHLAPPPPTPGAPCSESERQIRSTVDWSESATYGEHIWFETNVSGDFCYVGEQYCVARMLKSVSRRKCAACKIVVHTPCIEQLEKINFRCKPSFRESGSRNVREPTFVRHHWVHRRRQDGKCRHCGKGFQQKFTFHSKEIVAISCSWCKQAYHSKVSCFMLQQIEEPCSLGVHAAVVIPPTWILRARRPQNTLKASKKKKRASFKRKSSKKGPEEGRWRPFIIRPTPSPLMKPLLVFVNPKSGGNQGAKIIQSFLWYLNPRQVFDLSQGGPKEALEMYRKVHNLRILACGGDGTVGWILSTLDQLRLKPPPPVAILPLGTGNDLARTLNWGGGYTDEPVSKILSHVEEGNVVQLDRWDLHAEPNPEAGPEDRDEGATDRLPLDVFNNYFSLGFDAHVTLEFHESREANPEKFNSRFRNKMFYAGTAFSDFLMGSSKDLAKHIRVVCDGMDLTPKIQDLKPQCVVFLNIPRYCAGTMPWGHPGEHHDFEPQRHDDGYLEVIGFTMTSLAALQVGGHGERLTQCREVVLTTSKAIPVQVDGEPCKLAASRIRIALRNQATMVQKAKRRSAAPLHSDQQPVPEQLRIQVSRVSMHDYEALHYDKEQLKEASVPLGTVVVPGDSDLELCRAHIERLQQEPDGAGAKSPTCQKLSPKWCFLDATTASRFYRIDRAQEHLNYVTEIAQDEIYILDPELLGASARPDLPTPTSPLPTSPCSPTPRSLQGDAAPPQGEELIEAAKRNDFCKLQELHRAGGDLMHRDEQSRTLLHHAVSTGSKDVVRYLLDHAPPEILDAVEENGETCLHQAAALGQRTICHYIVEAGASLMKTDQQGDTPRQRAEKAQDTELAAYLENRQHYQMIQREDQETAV

This assay addresses human DGKζ (Homo sapiens (Human), UniProt Q13574). Nature of the assay: Human DGKζ kinase activity inhibition assay (ADP-Glo). The assay is classed as biochemical. The settings on record: in vitro human DGKζ kinase activity inhibition assay; read-out: IC50. The essentials: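 Enzyme was C-terminally FLAG-tagged full-length recombinant human DGKζ from baculovirus-infected insect cells. Substrate preparation used octyl-β-D-glucopyranoside in 50 mM MOPS pH 7.4 with sonication; ADP generated was quantified by ADP-Glo luminescence as activity measure.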
For orientation: ADP-Glo first removes unused ATP, then detects ADP through luciferase.
For `CC(C(N)=O)N(c1ccc2c(c1)OC(F)(F)O2)c1nc(N)c(C(=O)c2ccncc2)s1` (racemic) [Example 215, rac-2-[[4-amino-5-(pyridine-4-carbonyl)thiazol-2-yl]-(2,2-difluoro-1,3-benzodioxol-5-yl)amino]propanamide], the 50% inhibitory concentration (IC50) was 279 nM.

Regarding `CCC(C(N)=O)N(c1ccccc1)c1nc(N)c(C(=O)c2ccccc2)s1` (racemic) [Example 67, rac-2-[(4-amino-5-benzoyl-1,3-thiazol-2-yl)(phenyl)amino]butanamide], the half-inhibitory concentration (IC50) is 2270 nM.

`CC(C(N)=O)N(c1ccc(OC(F)F)c(F)c1)c1nc(N)c(C(=O)c2ccc(OC(F)F)nc2)s1` (racemic) [Example 209, rac-2-[N-[4-amino-5-[6-(difluoromethoxy)pyridine-3-carbonyl]thiazol-2-yl]-4-(difluoromethoxy)-3-fluoro-anilino]propanamide]: the IC50 came out at 45 nM.

Take `CC(C(N)=O)N(c1ccc(F)c(Cl)c1)c1nc(N)c(C(=O)c2ccncc2)s1` (single isomer, unassigned) [Example 160.2, 2-(N-[4-amino-5-(pyridine-4-carbonyl)thiazol-2-yl]-3-chloro-4-fluoro-anilino)propanamide]: the concentration for half-maximal inhibition (IC50) was 8450 nM.

Take `CC(C(N)=O)N(c1nc(N)c(C(=O)c2ccccc2)s1)c1ccc(OC(F)(F)F)cc1F` (racemic) [Example 239, rac-2-[N-(4-amino-5-benzoyl-thiazol-2-yl)-2-fluoro-4-(trifluoromethoxy)anilino]propanamide]: the 50% inhibitory concentration (IC50) came to 236 nM.

`COc1ccc(CNC(=O)COc2ccc(C(=O)c3sc(N(c4ccc(F)cc4)C(C)C(N)=O)nc3N)cc2)cc1` (racemic) [Example 124, rac-2-(N-[4-amino-5-[4-[2-[(4-methoxyphenyl)methylamino]-2-oxo-ethoxy]benzoyl]thiazol-2-yl]-4-fluoro-anilino)propanamide]: the half-maximal inhibitory concentration (IC50) is 48.3 nM.

Take `COc1ccc(C(=O)c2sc(N(c3ccc(Cl)cc3)C(C)C(N)=O)nc2N)cc1` (single isomer, unassigned) [Example 58.1, 2-(N-[4-amino-5-(4-methoxybenzoyl)thiazol-2-yl]-4-chloro-anilino)propanamide]: the IC50 came out at 8 nM.

On to `COc1cc(C(=O)c2sc(N(c3ccc(F)cc3)C(C)C(N)=O)nc2N)ccn1` (racemic) [Example 190, rac-2-(N-[4-amino-5-(2-methoxypyridine-4-carbonyl)thiazol-2-yl]-4-fluoro-anilino)propanamide], for which the half-maximal inhibitory concentration (IC50) was found to be 553 nM.

As for `CC(C(N)=O)N(c1ccc(F)c(F)c1)c1nc(N)c(C(=O)c2ccc(OCc3ccccc3)cc2)s1` (racemic) [Example 165, rac-2-(N-[4-amino-5-(4-benzyloxybenzoyl)thiazol-2-yl]-3,4-difluoro-anilino)propanamide], the IC50 came out at 3 nM.

With `CC(C(N)=O)N(c1ccc(F)c(F)c1)c1nc(N)c(C(=O)c2cccnc2)s1` (single isomer, unassigned) [Example 184.1, 2-(N-[4-amino-5-(pyridine-3-carbonyl)thiazol-2-yl]-3,4-difluoro-anilino)propanamide], the half-inhibitory concentration (IC50) was found to be 297 nM.

For the compound `CC(C(N)=O)N(c1ccc(OC(F)(F)F)cc1)c1nc(N)c(C(=O)c2ccc(F)cc2)s1` (single isomer, unassigned) [Example 27.2, 2-[N-(4-amino-5-(4-fluorobenzoyl)thiazol-2-yl]-4-(trifluoromethoxy)anilino]propanamide], the IC50 turned out to be 43.6 nM.

As to `CC(C(N)=O)N(c1ccc(F)cc1)c1nc(N)c(C(=O)c2ccccc2F)s1` (racemic) [Example 8, rac-2-(N-[4-amino-5-(2-fluorobenzoyl)thiazol-2-yl]-4-fluoro-anilino)propanamide], the IC50 was 618 nM.

Take `CC(C(N)=O)N(c1ccc(F)c(F)c1)c1nc(N)c(C(=O)c2ccc(NC(=O)OCc3ccccc3)cc2)s1` (racemic) [Example 167, rac-benzyl N-[4-[4-amino-2-(N-(2-amino-1-methyl-2-oxo-ethyl)-3,4-difluoro-anilino)thiazole-5-carbonyl]phenyl]carbamate]: the IC50 was 2 nM.

Take `CC(C(N)=O)N(c1ccc(F)cc1)c1nc(N)c(C(=O)c2ccc(OCc3ccccc3)cc2)s1` (racemic) [Example 158, rac-2-(N-[4-amino-5-(4-benzyloxybenzoyl)thiazol-2-yl]-4-fluoro-anilino)propanamide]: the concentration for half-maximal inhibition (IC50) worked out at 6.71 nM.

Take `CC(C(N)=O)N(c1nc(N)c(C(=O)c2ccccc2)s1)c1ccc(F)cc1Br` (racemic) [Example 5, rac-2-(N-(4-amino-5-benzoyl-thiazol-2-yl)-2-bromo-4-fluoro-anilino)propanamide]: the IC50 came to 757 nM.

Regarding `CC(C(N)=O)N(c1ccc(Cl)cc1)c1nc(N)c(C(=O)c2ccc(Cl)cc2)s1` (single isomer, unassigned) [Example 41.2, 2-(N-[4-amino-5-(4-chlorobenzoyl)thiazol-2-yl]-4-chloro-anilino)propanamide], the IC50 is 7.73 nM.

For the compound `CC(C(N)=O)N(c1ccc(F)cc1)c1nc(N)c(C(=O)c2ccc(Br)nc2)s1` (racemic) [Example 274, rac-2-(N-[4-amino-5-(6-bromopyridine-3-carbonyl)thiazol-2-yl]-4-fluoro-anilino)propanamide], the IC50 came to 107 nM.

As to `CC(C(N)=O)N(c1ccc(Cl)c(F)c1)c1nc(N)c(C(=O)c2ccc(OC(F)F)nc2)s1` (racemic) [Example 164, rac-2-(N-[4-amino-5-[6-(difluoromethoxy)pyridine-3-carbonyl]thiazol-2-yl]-4-chloro-3-fluoro-anilino)propanamide], the concentration for half-maximal inhibition (IC50) was 7 nM.

Take `Cc1ccc(N(c2nc(N)c(C(=O)c3ccccc3)s2)C(C)C(N)=O)cc1` (single isomer, unassigned) [Example 73.1, 2-(N-(4-amino-5-benzoyl-thiazol-2-yl)-4-methyl-anilino)propanamide]: the concentration for half-maximal inhibition (IC50) turned out to be 3720 nM.

Turning to `CC(C(N)=O)N(c1ccc(F)cc1)c1nc(N)c(C(=O)c2ccc(C(F)(F)F)nc2)s1` (single isomer, unassigned) [Example 29.1, 2-(N-[4-amino-5-[6-(trifluoromethyl)pyridine-3-carbonyl]thiazol-2-yl]-4-fluoro-anilino)propanamide], the half-inhibitory concentration (IC50) amounted to 12500 nM.

For `CC(C(N)=O)N(c1ccc(F)cc1)c1nc(N)c(C(=O)c2ccc(C(F)F)nc2)s1` (racemic) [Example 159, rac-2-(N-[4-amino-5-[6-(difluoromethyl)pyridine-3-carbonyl]thiazol-2-yl]-4-fluoro-anilino)propanamide], the IC50 was found to be 214 nM.

As to `COc1ccc(C(=O)c2sc(N(c3ccc(Cl)c(F)c3)C(C)C(N)=O)nc2N)cc1` (racemic) [Example 59, rac-2-(N-[4-amino-5-(4-methoxybenzoyl)thiazol-2-yl]-4-chloro-3-fluoro-anilino)propanamide], the IC50 is 10.3 nM.

As for `CC(C(N)=O)N(c1ccc(OC(F)(F)F)c(Cl)c1)c1nc(N)c(C(=O)c2ccc(OC(F)F)cc2)s1` (racemic) [Example 224, rac-2-[N-[4-amino-5-[4-(difluoromethoxy)benzoyl]thiazol-2-yl]-3-chloro-4-(trifluoromethoxy)anilino]propanamide], the half-inhibitory concentration (IC50) worked out at 45 nM.
